Key:
MCF-7/HER-2 cells = settings: MCF-7 cells with HER2-overexpression, xenografts in nude mice; cited from earlier work
[1] = system: MAPK: ERK-1 (p44) and ERK-2 (p42); assay: Estrogen-induced MAPK phosphorylation, Western blot in MCF-7 cells; format: cell-based, human; settings: MCF-7 parent cells, 1 nM estradiol (E2); antagonists pre-incubated at 1000 nM; FIG. 7A
Procedure: ERD inhibition of phosphorylation of MAPK, at both extracellular signal-regulated kinases ERK-1 (p44) and ERK-2 (p42) and downstream effects. […] Thus, we measured estrogen-induced phosphorylation of MAPK by established methods (9,15,16). Briefly, MCF-7 parental cells were estrogen deprived for 48 hrs, then treated with 1 nM estradiol-1713 in the presence of new compounds (10 nM-10 μM) to be tested for antagonist activity. After treatments, cell lysates were separated by SDS-PAGE followed by Western blot using a polyclonal antibody directed to phospho-p44/p42 MAP kinase (Thr202/Tyr204) (Cell Signaling). Immunodetection with antibody against total p44/p42 (Cell Signaling) was done as a control for gel loading. […] ERD S15 was as effective as fulvestrant in inhibiting the rapid estrogen-induced MAPK phosphorylation in breast tumor cells in vitro. […] E2 but not vehicle (CN) induced rapid phosphorylation of ERK-1 (p44) and ERK-2 (p42). This activation was prevented when cells were pre-incubated with 1000 nM ICI 182,780 (ICI; Faslodex) or 1000 nM compound S15 in the presence of estradiol (E2).

H1975 NSCLC cells = assay: NSCLC cell proliferation in vitro (MTS assay); format: cell-based, human; settings: Homo sapiens, NCI-H1975, SERD alone, 72 hours, estrogen-depleted phenol red-free medium with 5% DCC-FBS, read-out: IC50 for inhibition of NSCLC cell proliferation, H1975
Procedure: (§1) Cell culture: Human breast and non-small cell lung cancer cells (MCF7, ZR75-1, MDAMB231, A549, H23, H1975, […]) were from ATCC. MCF7-HER2 were a kind gift of Dr. Dennis Slamon (23). Cell lines were routinely maintained in RPMI 1640 or DMEM medium with 10% fetal bovine serum (FBS) (Sigma-Aldrich) and 1% Antibiotic-Antimycotic solution 100× (Mediatech, Herndon, Va.). When indicated, for estrogen-free conditions, media was changed 48 h before experiments to phenol-red free RPMI 1640/DMEM with 1% dextran-coated, charcoal-treated (DCC)-FBS (24,25). Otherwise experiments were performed in phenol-red free RPMI 1640/DMEM medium with 5% DCC-FBS.
(§2) Cell proliferation assays: breast and lung tumor cells (between […]) were plated in 96 well plates using their respective medium with 10% FBS. For experiments using estradiol-17β, cells were rinsed with PBS and incubated with phenol redfree medium with 1% DCC-FBS for 48 hours as described before (24,25). Cells were then treated with different concentrations of SERDs ranging between 0.0001-100 μM. […] Cell counts and viability tests (Trypan blue) were done every 24 hr for 3 days. After 72 hr, proliferation was assessed with the MTS Assay CELLTITER 96® Aqueous Cell Proliferation Assay (Promega) or the Cell Proliferation ELISA, BrdU colorimetric assay (Roche). For the MTS, the absorbance of the formazan product was measured at 490 nanometer using the iMARK microplate reader from BIORAD. The BrdU ELISA assay is based on detection of BrdU incorporated into the genomic DNA of proliferating cells and an anti-BrdU antibody, the reaction product was quantified by measuring the absorbance at 370 nanometers using iMARK microplate reader from BIORAD. Cell numbers were also assessed initially by cell counts to confirm MTS/BrdU data. Experiments were done at least three times to confirm data.

H2122 NSCLC cells = assay: NSCLC cell proliferation in vitro (MTS assay); format: cell-based, human; settings: Homo sapiens, NCI-H2122, SERD alone, 72 hours, estrogen-depleted phenol red-free medium with 5% DCC-FBS, read-out: IC50 for inhibition of NSCLC cell proliferation, H2122
Procedure: as §1, §2

[2] = system: MCF-7 breast cancer cells; assay: MCF-7 breast cancer cell proliferation (BrdU ELISA) in presence of estradiol-17β; format: cell-based, human; settings: Homo sapiens, MCF7; 72 hrs in the presence of 1 nM estradiol-17β, BrdU ELISA; read-out: IC50 for inhibition of cell proliferation, MCF-7
Procedure: In experiments to assess potential proliferative effects of novel estrogen receptor ligands, human breast cancer cells were grown in phenol red-free, estrogen-free media with 1% dextran-coated charcoal-treated (DCC)-fetal bovine serum (FBS) for 48 hrs (15,44), then treated with either 1 μM or 50 μM doses of estrogen receptor antagonists in the presence of 1 nM estradiol-17β. Cell counts and viability tests (Trypan blue) were done every 24 hr for 3 days. After 72 hr, proliferation was assessed using the BrdU Cell proliferation ELISA (Roche). Cell numbers were also assessed initially by cell counts to confirm ELISA data. Each antiestrogen was tested at least in three different experiments.
In order to assess the antitumor action of novel estrogen receptor antagonists, we cultured human MCF-7 breast cancer cells with known expression of ERα. Cells were grown in 1% DCC-FBS for 48 hr and then treated with vehicle control or either 1 μM or 50 μM concentrations of antiestrogens JD 101-160 or the pure antiestrogen fulvestrant (FAS), all in the presence of 1 nM estradiol-170. […] Shown in FIG. 2A are results from MCF-7 cells grown in 1% DCC-FBS for 48 hr and then treated with vehicle control, 1 nM estradiol-170 and either 1 μM or 50 μM concentrations of antiestrogens JD 101-160 or the known pure antiestrogen fulvestrant (FAS) in the presence of 1 nM estradiol-170. Cell proliferation is expressed as percentage of that determined in the 1 nM estradiol-170-treated control group.
as §2

MCF-7 parental cells = settings: MCF-7 parental xenografts in nude mice; cited from earlier work
A549 NSCLC cells = assay: NSCLC cell proliferation in vitro (MTS assay); format: cell-based, human
cyclin D1 = assay: Cyclin D1 expression, Western immunoblot in A549 NSCLC cells; format: cell-based, human; settings: 24 h, 1% DCC-FBS, letrozole 10 μM, FIG. 5B
Procedure: FIG. 5B. […] Cells were treated 24 h in phenol red-free RPMI with 1% DCC-FBS. Control (Con), estradiol-17β (E2; 1 nM), androstenedione (And; 1 nM), testosterone (Tst; 10 nM), letrozole (AI; 10 μM) and palbociclib (Plbo; 1 μM) were used in this experiment. GADPH is used as a loading control (20).

Rb serine-780 = Rb serine-780 phosphorylation, Western blot in A549 cells; format: cell-based, human; settings: 24 h, 1% DCC-FBS, 1 nM E2, 1 nM androstenedione, 10 nM testosterone, 10 μM letrozole, 100 nM palbociclib, FIG. 4C
Procedure: FIG. 4C. […] Cells were treated 24 h in phenol red-free RPMI with 1% DCC-FBS with vehicle control (CON), 1 nM estradiol-17β (E2), 1 nM androstenedione (And), 10 nM testosterone (Tes), 10 μM letrozole (AI), 100 nM palbociclib (Plbo) or both Plbo+AI. After 24 hr, cell lysates subjected to Western blot with antibody to phosphoserine-780 Rb or total Rb (Cell Signaling) (20). GAPDH is used as loading control.
To investigate the antitumor efficacy of CDK 4/6 inhibitor palbociclib in NSCLC cells, we assessed the effects of palbociclib alone and in combination with the hormonal therapeutic letrozole (see FIGS. 4B and 5B). The potential mechanism of action of palbociclib and letrozole in NSCLC cells was investigated by assay of the effects of these agents alone and combined on phosphorylation of Rb serine-780

Structure (SMILES): C[C@]12CC[C@@H]3c4ccc(O)cc4C[C@@H](CCCCCCCCC[S+]([O-])CCCC(F)(F)C(F)(F)F)[C@H]3[C@@H]1CC[C@@H]2O (stereo partly shown) [FULVEST, fulvestrant, reference compound]
- sensitivity of MCF-7/HER-2 xenografts (MCF-7/HER-2 cells): partially sensitive
- phosphorylation of MAPK (ERK-1 p44 and ERK-2 p42) [1]: prevented
- IC50 (H1975 NSCLC cells): 1880 nM
- IC50 (H2122 NSCLC cells): 1290 nM
- IC50 [2]: 1110 nM
- growth of parent tumors (xenografts) (MCF-7 parental cells): suppressed
- IC50 (A549 NSCLC cells; Homo sapiens, A549, SERD alone, 72 hours, estrogen-depleted phenol red-free medium with 5% DCC-FBS, MTS assay, read-out: IC50 for inhibition of NSCLC cell proliferation, A549): 4160 nM

Structure (SMILES): N#Cc1ccc(C(c2ccc(C#N)cc2)n2cncn2)cc1 [letrozole]
- cyclin D1 expression (cyclin D1): reduces cyclin D1 expression
- phosphorylation of Rb serine-780 (Rb serine-780): block
- inhibition of NSCLC cell proliferation (A549 NSCLC cells; A549, 72 hrs, single agents and palbociclib (10 or 100 nM)/letrozole (10 μM), FIG. 6B): dose-dependent inhibition

— patent US10918648B2, “Estrogen receptor modulator combinations” (The Regents of the University of California, priority 2016, dated 2021)
